Results on 13 molecules are retold here after US5763404A, “Methods for using LHRH antagonists with low histamine release” (priority 1995, dated 1998).

One data set relates to rat mast cells. The data set can be described thus: in vitro histamine release test. It is filed as cell-based. As to the method: The antiovulatory activity, AOA, in rats was determined as described by Humphries et al. (12). Antiovulation assays were performed by counting, on estrus, the number of ova shed by 4-day cycling rats after a single sc injection of the LH-RH analogue in corn oil was administered between 12 and 12:30 p.m. on […]. The control rats received 0.3 mL of the vehicle. The wheal test was performed by intradermally injecting 10 ug of peptide in 100 ul of saline into anaesthesized rats, measuring the ideally circular wheal response and calculating the area. The in vitro histamine release test was done as described by Karten et al. (4). A suspension of rat mast cells was added to increasing concentrations of peptide and the mixture was incubated for a few minutes followed by centrifugation to collect the histamine in the supernatant. A PIPES (piperazine-N,N'-bis[2-ethanesulfonic acid]) medium buffered at pH 7.4 containing NaCl 119 mM, KCl 5 mM, PIPES 25 mM, NaOH 40 mM, glucose 5.6 mM, CaCl2 1 mM, and 0.1% bovine serum albumin was used. This was designated as PIPES AC. Peptides were dissolved in double distilled H2 O at a concentration of 2 mg/ml and stored at -20° C. They were thawed just prior to testing, diluted in PIPES AC and prewarmed for five minutes at 37° C. Peptides studied were stable to heating at 56° C. for two hours, and to freezing and thawing.
Peritoneal cells were collected from male Sprague-Dawley rats weighing 200 to 250 gm and purchased from Harlan (Madison, Wis.). After euthanasia by CO2, the peritoneal cavity was washed with 50 ml PIPES AC medium containing 20 units of heparin. Following centrifugation at 200×g for eight minutes at 4° C., cells were washed again and finally resuspended to a concentration of 8 to 24×10^5 total leukocytes/ml in PIPES AC. This suspension contained approximately 5-10% mast cells. Washed cells were used immediately after collection and were prewarmed for five minutes at 37° C. prior to pipetting 0.25 ml aliquots into 12×75 mm polystyrene tubes containing 0.25 ml of diluted peptide. Mixtures were incubated for 15 minutes at 37° C. and the reaction stopped by centrifugation at 400×g for 15 minutes at 4° C. The cell supernatants were assayed for histamine content by the automated fluorometric assay procedure. See, Siraganian, R. P., "An automated continuous flow system for the extraction and fluorometric analysis of histamine." Anal. Biochem. 57:383 (1974); and Siraganian, R. P. and Hook, W. A., "Histamine release and assay methods for the study of human allergy," In Manual of Clinical Immunology, 3rd ed., N. R. Rose, H. Friedman, and J. L. Fahey (Eds.), Amer. Soc. for Microbiology, Washington (1986) p. 808.

Data set [1] relates to dispersed pituitary cell culture. The data set can be described thus: dispersed pituitary cell culture assay. The format is cell-based.
The next data set relates to anaesthesized rats. Kind of data set: wheal test, intradermal injection. The format is in vivo, rat. Also on record: Wheal (wheal response): unit not given here. Particulars: for Wheal Area / Wheal: 10 ug peptide intradermally; for Wheal: Table I. The method, boiled down:
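Anaesthetized rats given intradermal injection of 10 ug peptide in 100 ul saline; area of the wheal calculated from its diameter.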

Non-standard residues stand in square brackets, D forms with d. Residues, ends and D or L forms follow the SMILES beside them. No end group written: not given here. *: point of attachment. dAla(cis-4-NHCOPyz-cHex) = N[C@H](C[C@H]1CC[C@@H](NC(=O)c2cnccn2)CC1)C(=O)O; dPhe(4-Cl) = N[C@H](Cc1ccc(Cl)cc1)C(=O)O; Pyrimidin2yl(4,6-Me2) = Cc1cc(C)nc(*)n1; d2Nal = N[C@H](Cc1ccc2ccccc2c1)C(=O)O; dLys(Me2) = CN(C)CCCC[C@@H](N)C(=O)O; Lys(iPr) = CC(C)NCCCC[C@H](N)C(=O)O; NH(4-MeO-phenyl) = COc1ccc(N*)cc1; 3Pal = N[C@@H](Cc1cccnc1)C(=O)O; d3Pal = N[C@H](Cc1cccnc1)C(=O)O; Nicotinoyl = O=C(c1cccnc1)*; Picolinoyl = O=C(c1ccccn1)*; dOrn = NCCC[C@@H](N)C(=O)O; Orn = NCCC[C@H](N)C(=O)O; Abu = CC[C@H](N)C(=O)O

`CC(=O)N[C@H](Cc1ccc2ccccc2c1)C(=O)N[C@H](Cc1ccc(Cl)cc1)C(=O)N[C@H](Cc1cccnc1)C(=O)N[C@@H](CO)C(=O)N[C@@H](CCCCNC(=O)c1ccccn1)C(=O)N[C@H](CCCCNC(=O)c1ccccn1)C(=O)N[C@@H](CC(C)C)C(=O)N[C@@H](CCCCNC(C)C)C(=O)N1CCC[C@H]1C(=O)N[C@H](C)C(N)=O` (Ac-[d2Nal][dPhe(4-Cl)][d3Pal]SK(Picolinoyl)[dK](Picolinoyl)L[Lys(iPr)]P[dA]-NH2): the “histamine release (in words)” value with rat mast cells was “released no more histamine than do "super agonists" of LHRH”.
Consider “luteinizing hormone releasing hormone (QHWSYGLRPG; ends and bridges not checked; UniProt P01148 24-33, looked up) [LHRH, natural hormone used as agonist in the pituitary cell culture assay]”, for which the FSH is 221 ± 18 ng/mL in data set [1] (LHRH 0.1 nM alone); 562 ± 48 ng/mL in data set [1] (LHRH 0.3 nM alone); 802 ng/mL in data set [1] (LHRH 1.0 nM alone); 646 ± 123 ng/mL in data set [1] (LHRH 3.0 nM alone); 602 ± 26 ng/mL in data set [1] (LHRH 10.0 nM alone); 557 ± 15 ng/mL in data set [1] (LHRH 30.0 nM alone). Further, the RLH in data set [1] (LHRH 0.1 nM alone) was 40 ± 7 ng/mL; in data set [1] (LHRH 0.3 nM alone) it was 80 ± 1 ng/mL; in data set [1] (LHRH 1.0 nM alone), 118 ng/mL; in data set [1] (LHRH 3.0 nM alone) it was 150 ± 1 ng/mL; in data set [1] (LHRH 10.0 nM alone), 141 ± 4 ng/mL; in data set [1] (LHRH 30.0 nM alone), 152 ± 7 ng/mL.
In the case of `CC(=O)N[C@H](Cc1ccc2ccccc2c1)C(=O)N[C@H](Cc1ccc(Cl)cc1)C(=O)N[C@H](Cc1cccnc1)C(=O)N[C@@H](CO)C(=O)N[C@@H](CCCCNC(=O)c1ccccn1)C(=O)N[C@H](C[C@H]1CC[C@@H](NC(=O)c2cnccn2)CC1)C(=O)N[C@@H](Cc1ccccc1)C(=O)N[C@@H](CCCCNC(C)C)C(=O)N1CCC[C@H]1C(=O)N[C@H](C)C(N)=O` [compound 26366] (Ac-[d2Nal][dPhe(4-Cl)][d3Pal]SK(Picolinoyl)[dAla(cis-4-NHCOPyz-cHex)]F[Lys(iPr)]P[dA]-NH2), in the data set on anaesthesized rats, the “Wheal Area” value was determined as 116.2 ± 3.2 mm^2 /10 μg.
As for `CC(=O)N[C@H](Cc1ccc2ccccc2c1)C(=O)N[C@H](Cc1ccc(Cl)cc1)C(=O)N[C@H](Cc1cccnc1)C(=O)N[C@@H](CO)C(=O)N[C@@H](CCCCNC(=O)c1cccnc1)C(=O)N[C@H](CCCCN(C)C)C(=O)N[C@@H](CC(C)C)C(=O)N[C@@H](CCCCNC(C)C)C(=O)N1CCC[C@H]1C(=O)N[C@H](C)C(N)=O` [compound 25591] (Ac-[d2Nal][dPhe(4-Cl)][d3Pal]SK(Nicotinoyl)[dLys(Me2)]L[Lys(iPr)]P[dA]-NH2), in the data set on anaesthesized rats, the Wheal worked out at 111 ± 2 mm^2 /10.
Consider `CC(=O)N[C@H](Cc1ccc2ccccc2c1)C(=O)N[C@H](Cc1ccc(Cl)cc1)C(=O)N[C@H](Cc1cccnc1)C(=O)N[C@@H](CO)C(=O)N[C@@H](Cc1cccnc1)C(=O)N[C@H](CCCCNC(=O)c1cccnc1)C(=O)N[C@@H](CC(C)C)C(=O)N[C@@H](CCCNC(=N)N)C(=O)N1CCC[C@H]1C(=O)N[C@H](C)C(N)=O` [compound 24593] (Ac-[d2Nal][dPhe(4-Cl)][d3Pal]S[3Pal][dK](Nicotinoyl)LRP[dA]-NH2), for which the Wheal in the data set with anaesthesized rats is listed as 146.4 ± 3.6 mm^2 /10.
`CC(=O)N[C@H](Cc1ccc2ccccc2c1)C(=O)N[C@H](Cc1ccc(Cl)cc1)C(=O)N[C@H](Cc1cccnc1)C(=O)N[C@@H](CO)C(=O)N[C@@H](CCCCNC(=O)c1cccnc1)C(=O)N[C@H](CCCCNC(=O)c1cccnc1)C(=O)N[C@@H](CC(C)C)C(=O)N[C@@H](CCCNC(=N)N)C(=O)N1CCC[C@H]1C(=O)N[C@H](C)C(N)=O` [compound 24594] (Ac-[d2Nal][dPhe(4-Cl)][d3Pal]SK(Nicotinoyl)[dK](Nicotinoyl)LRP[dA]-NH2): in the data set with anaesthesized rats, the Wheal amounted to 126.2 ± 8.8 mm^2 /10.
The same measure, in the same setting: as for `COc1ccc(NC(=O)CC[C@@H](NC(=O)[C@H](CCCCNC(=O)c2cccnc2)NC(=O)[C@H](CO)NC(=O)[C@@H](Cc2cccnc2)NC(=O)[C@@H](Cc2ccc(Cl)cc2)NC(=O)[C@@H](Cc2ccc3ccccc3c2)NC(C)=O)C(=O)N[C@@H](CC(C)C)C(=O)N[C@@H](CCCCNC(C)C)C(=O)N2CCC[C@H]2C(=O)N[C@H](C)C(N)=O)cc1` [compound 25588] (Ac-[d2Nal][dPhe(4-Cl)][d3Pal]SK(Nicotinoyl)[dE](NH(4-MeO-phenyl))L[Lys(iPr)]P[dA]-NH2), the figure is 113 ± 7 mm^2 /10.
On to `CC[C@H](NC(=O)[C@@H](CCCCNC(=O)c1ccccn1)NC(=O)[C@H](CCCCNC(=O)c1ccccn1)NC(=O)[C@H](CO)NC(=O)[C@@H](Cc1cccnc1)NC(=O)[C@@H](Cc1ccc(Cl)cc1)NC(=O)[C@@H](Cc1ccc2ccccc2c1)NC(C)=O)C(=O)N[C@@H](CCCNC(=N)N)C(=O)N1CCC[C@H]1C(=O)N[C@H](C)C(N)=O` [compound 26346] (Ac-[d2Nal][dPhe(4-Cl)][d3Pal]SK(Picolinoyl)[dK](Picolinoyl)[Abu]RP[dA]-NH2), for which the “Wheal Area” value with anaesthesized rats is given as 113.2 ± 5.4 mm^2 /10 μg. For the same molecule, the “Wheal (wheal response)” value with anaesthesized rats (Table XIV and text, unit not given) amounted to 113.2 ± 5.4.
Consider `CC(=O)N[C@H](Cc1ccc2ccccc2c1)C(=O)N[C@H](Cc1ccc(Cl)cc1)C(=O)N[C@H](Cc1cccnc1)C(=O)N[C@@H](CO)C(=O)N[C@@H](CCCNC(=N)N)C(=O)N[C@H](CCCCNC(=O)c1cccnc1)C(=O)N[C@@H](CC(C)C)C(=O)N[C@@H](CCCCNC(C)C)C(=O)N1CCC[C@H]1C(=O)N[C@H](C)C(N)=O` [compound 25335] (Ac-[d2Nal][dPhe(4-Cl)][d3Pal]SR[dK](Nicotinoyl)L[Lys(iPr)]P[dA]-NH2), for which the Wheal in the data set on anaesthesized rats is 196.9 mm^2 /10.
As to `CC(=O)N[C@H](Cc1ccc2ccccc2c1)C(=O)N[C@H](Cc1ccc(Cl)cc1)C(=O)N[C@H](Cc1cccnc1)C(=O)N[C@@H](CO)C(=O)N[C@@H](CCCNc1nc(C)cc(C)n1)C(=O)N[C@H](CCCCNC(=O)c1cccnc1)C(=O)N[C@@H](CC(C)C)C(=O)N[C@@H](CCCCNC(C)C)C(=O)N1CCC[C@H]1C(=O)N[C@H](C)C(N)=O` [compound 25506] (Ac-[d2Nal][dPhe(4-Cl)][d3Pal]S[Orn](Pyrimidin2yl(4,6-Me2))[dK](Nicotinoyl)L[Lys(iPr)]P[dA]-NH2), the Wheal with anaesthesized rats was determined as 110 ± 3 mm^2 /10.
In turn, `CC(=O)N[C@H](Cc1ccc2ccccc2c1)C(=O)N[C@H](Cc1ccc(Cl)cc1)C(=O)N[C@H](Cc1cccnc1)C(=O)N[C@@H](CO)C(=O)N[C@@H](CCCCNC(C)C)C(=O)N[C@H](CCCCNC(=O)c1cccnc1)C(=O)N[C@@H](CC(C)C)C(=O)N[C@@H](CCCCNC(C)C)C(=O)N1CCC[C@H]1C(=O)N[C@H](C)C(N)=O` [compound 24543] (Ac-[d2Nal][dPhe(4-Cl)][d3Pal]S[Lys(iPr)][dK](Nicotinoyl)L[Lys(iPr)]P[dA]-NH2) gave a Wheal with anaesthesized rats of 132.7 mm^2 /10.
Still for that read-out and setting: as for `CC(=O)N[C@H](Cc1ccc2ccccc2c1)C(=O)N[C@H](Cc1ccc(Cl)cc1)C(=O)N[C@H](Cc1cccnc1)C(=O)N[C@@H](CO)C(=O)N[C@@H](CCCCNC(=O)c1cccnc1)C(=O)N[C@H](CCCNc1nc(C)cc(C)n1)C(=O)N[C@@H](CC(C)C)C(=O)N[C@@H](CCCCNC(C)C)C(=O)N1CCC[C@H]1C(=O)N[C@H](C)C(N)=O` [compound 25334] (Ac-[d2Nal][dPhe(4-Cl)][d3Pal]SK(Nicotinoyl)[dOrn](Pyrimidin2yl(4,6-Me2))L[Lys(iPr)]P[dA]-NH2), the figure is 165.2 mm^2 /10; as for `CC(=O)N[C@H](Cc1ccc2ccccc2c1)C(=O)N[C@H](Cc1ccc(Cl)cc1)C(=O)N[C@H](Cc1cccnc1)C(=O)N[C@@H](CO)C(=O)N[C@@H](CCCCNC(=O)c1cccnc1)C(=O)N[C@H](CCCCNC(=O)c1cccnc1)C(=O)N[C@@H](CC(C)C)C(=O)N[C@@H](CCCCNC(=O)c1cccnc1)C(=O)N1CCC[C@H]1C(=O)N[C@H](C)C(N)=O` [compound 24596] (Ac-[d2Nal][dPhe(4-Cl)][d3Pal]SK(Nicotinoyl)[dK](Nicotinoyl)LK(Nicotinoyl)P[dA]-NH2), 122.8 ± 5.7 mm^2 /10.
